Among the data in patent US20230233569A1 (Revolution Medicines, Inc., priority 2020, published 2023) are IC50 values, retold here.

Test in all cases: Ras-Raf disruption / FRET / MOA assay (BRAF RBD)
Assay type in all cases: biochemical

One assay deals with KRAS G12D (Homo sapiens, UniProt P01116+P62937, G12D). Particulars: Ras-Raf disruption, with Cyclophilin A; read-out: KRAS G12D FRET data IC50. In short, it runs like this: (§1)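 Compound-induced Ras–Cyclophilin A ternary complex disrupting BRAF RBD binding, read as IC50 from reduced TR-FRET ratio relative to DMSO. Final: Ras-GMPPNP 12.5 nM, BRAF RBD 50 nM, Cyclophilin A 25 μM, top compound 30 μM (3-fold, 10 points); 3 h at 25 °C, then 1.5 h with detection antibodies.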

Another assay has as its target KRAS G12S (Homo sapiens, UniProt P01116+P62937, G12S). Particulars: Ras-Raf disruption, with Cyclophilin A; read-out: KRAS G12S FRET data IC50. In short, it runs like this:
as §1

The target in another assay is KRAS G12V (Homo sapiens, UniProt P01116+P62937, G12V). Particulars: Ras-Raf disruption, with Cyclophilin A; read-out: KRAS G12V FRET data IC50. In short, it runs like this: as §1
The target of a further assay is KRAS G13C (Homo sapiens, UniProt P01116+P62937, G13C). Particulars: Ras-Raf disruption, with Cyclophilin A; read-out: KRAS G13C FRET data IC50. In short, it runs like this:
as §1

The target of the next assay is KRAS G13D (Homo sapiens, UniProt P01116+P62937, G13D). The settings on record: Ras-Raf disruption, with Cyclophilin A; read-out: KRAS G13D FRET data IC50. In short, it runs like this: as §1
Another assay concerns the target KRAS Q61H (Homo sapiens, UniProt P01116+P62937, Q61H). The settings on record: KRAS Q61H; read-out: KRAS Q61H FRET data IC50. In outline:
as §1

For a further assay, the target named is KRAS WT (Homo sapiens, UniProt P01116+P62937). The settings on record: Ras-Raf disruption, with Cyclophilin A; read-out: KRAS WT FRET data IC50. In outline:
as §1

The next assay addresses NRAS G12C (Homo sapiens, UniProt P01111+P62937, G12C). Particulars: NRAS G12C; read-out: NRAS G12C FRET data IC50. In outline:
as §1

Another assay addresses NRAS Q61K (Homo sapiens, UniProt P01111+P62937, Q61K). Particulars: NRAS Q61K; read-out: NRAS Q61K FRET data IC50. In outline: as §1
The next assay deals with NRAS Q61R (Homo sapiens, UniProt P01111+P62937, Q61R). Particulars: NRAS Q61R; read-out: NRAS Q61R FRET data IC50. In short, it runs like this:
as §1

Another assay concerns the target NRAS WT (Homo sapiens, UniProt P01111+P62937). Particulars: NRAS WT; read-out: NRAS WT FRET data IC50. In outline:
as §1

Another assay has as its target KRAS G12C (Homo sapiens, UniProt P01116+P62937, G12C). The settings on record: Ras-Raf disruption, with Cyclophilin A; read-out: KRAS G12C FRET data IC50. In outline: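 TR-FRET read-out after 1.5 h with anti-His Eu-W1024 (10 nM) and anti-GST APC (50 nM), following 3 h at 25 °C of compound (top 30 μM, 3-fold, 10 points) with 25 μM Cyclophilin A, 12.5 nM GMPPNP-loaded K-Ras G12C and 50 nM BRAF RBD; IC50 reported.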

KRAS G13C, sequence (P01116 1-169 isoform P01116-2 G13C limits assumed): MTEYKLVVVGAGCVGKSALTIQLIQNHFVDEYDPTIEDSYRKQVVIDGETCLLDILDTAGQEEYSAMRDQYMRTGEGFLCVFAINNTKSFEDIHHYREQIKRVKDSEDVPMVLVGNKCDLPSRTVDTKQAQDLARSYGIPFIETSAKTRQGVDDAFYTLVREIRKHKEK
KRAS G13C, sequence (P62937 whole entry): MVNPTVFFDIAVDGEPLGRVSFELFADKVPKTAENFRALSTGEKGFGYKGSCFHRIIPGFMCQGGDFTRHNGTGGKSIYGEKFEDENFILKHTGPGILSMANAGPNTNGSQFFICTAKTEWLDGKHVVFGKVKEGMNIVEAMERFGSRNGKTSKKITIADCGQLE
KRAS G13D, sequence (P01116 1-169 isoform P01116-2 G13D limits assumed): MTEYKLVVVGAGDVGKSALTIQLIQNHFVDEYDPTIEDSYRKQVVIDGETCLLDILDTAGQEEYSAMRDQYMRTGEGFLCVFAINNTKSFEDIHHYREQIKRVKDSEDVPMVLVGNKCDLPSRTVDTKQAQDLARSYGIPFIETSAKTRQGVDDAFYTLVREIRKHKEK
KRAS G13D, sequence (P62937 whole entry): as the sequence (P62937 whole entry) above
NRAS G12C, sequence (P01111 whole entry G12C): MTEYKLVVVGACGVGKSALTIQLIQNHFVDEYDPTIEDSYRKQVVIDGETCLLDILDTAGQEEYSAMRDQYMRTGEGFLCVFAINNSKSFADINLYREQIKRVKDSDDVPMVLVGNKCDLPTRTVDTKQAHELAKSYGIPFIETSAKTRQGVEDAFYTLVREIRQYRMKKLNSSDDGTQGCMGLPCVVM
NRAS G12C, sequence (P62937 whole entry): as the sequence (P62937 whole entry) above
KRAS WT, sequence (P01116 1-169 isoform P01116-2 limits assumed): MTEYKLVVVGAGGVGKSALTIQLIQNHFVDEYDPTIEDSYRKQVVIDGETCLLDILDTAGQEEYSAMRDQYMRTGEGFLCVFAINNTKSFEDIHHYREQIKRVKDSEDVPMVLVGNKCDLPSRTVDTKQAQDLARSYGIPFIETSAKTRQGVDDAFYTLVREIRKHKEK
KRAS WT, sequence (P62937 whole entry): as the sequence (P62937 whole entry) above
KRAS G12D, sequence (P01116 1-169 isoform P01116-2 G12D limits assumed): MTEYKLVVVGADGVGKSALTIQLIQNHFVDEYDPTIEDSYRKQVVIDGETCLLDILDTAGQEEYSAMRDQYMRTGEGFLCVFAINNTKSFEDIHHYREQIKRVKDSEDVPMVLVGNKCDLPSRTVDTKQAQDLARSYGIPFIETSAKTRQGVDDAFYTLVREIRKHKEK
KRAS G12D, sequence (P62937 whole entry): as the sequence (P62937 whole entry) above
KRAS G12S, sequence (P01116 1-169 isoform P01116-2 G12S limits assumed): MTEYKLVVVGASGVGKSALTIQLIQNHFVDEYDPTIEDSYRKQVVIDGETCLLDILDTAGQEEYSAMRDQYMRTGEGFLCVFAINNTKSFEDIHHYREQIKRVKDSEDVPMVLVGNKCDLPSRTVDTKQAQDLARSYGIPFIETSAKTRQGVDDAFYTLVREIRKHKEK
KRAS G12S, sequence (P62937 whole entry): as the sequence (P62937 whole entry) above
NRAS Q61R, sequence (P01111 whole entry Q61R): as the sequence (P01111 whole entry G12C) above, with C12G, Q61R counted along it
NRAS Q61R, sequence (P62937 whole entry): as the sequence (P62937 whole entry) above
NRAS Q61K, sequence (P01111 whole entry Q61K): as the sequence (P01111 whole entry G12C) above, with C12G, Q61K counted along it
NRAS Q61K, sequence (P62937 whole entry): as the sequence (P62937 whole entry) above
NRAS WT, sequence (P01111 whole entry): as the sequence (P01111 whole entry G12C) above, with C12G counted along it
NRAS WT, sequence (P62937 whole entry): as the sequence (P62937 whole entry) above
KRAS G12V, sequence (P01116 1-169 isoform P01116-2 G12V limits assumed): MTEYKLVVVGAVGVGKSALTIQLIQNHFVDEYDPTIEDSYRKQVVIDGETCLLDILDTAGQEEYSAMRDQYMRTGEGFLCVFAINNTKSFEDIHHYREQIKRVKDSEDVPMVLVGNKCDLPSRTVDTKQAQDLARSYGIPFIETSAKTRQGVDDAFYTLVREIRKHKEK
KRAS G12V, sequence (P62937 whole entry): as the sequence (P62937 whole entry) above
KRAS Q61H, sequence (P01116 1-169 isoform P01116-2 Q61H limits assumed): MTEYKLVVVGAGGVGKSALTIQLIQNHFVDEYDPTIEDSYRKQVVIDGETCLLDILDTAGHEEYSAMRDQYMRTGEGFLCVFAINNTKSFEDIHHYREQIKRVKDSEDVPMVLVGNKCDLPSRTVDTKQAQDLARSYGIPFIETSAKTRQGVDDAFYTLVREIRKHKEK
KRAS Q61H, sequence (P62937 whole entry): as the sequence (P62937 whole entry) above
KRAS G12C, sequence (P01116 1-169 isoform P01116-2 G12C limits assumed): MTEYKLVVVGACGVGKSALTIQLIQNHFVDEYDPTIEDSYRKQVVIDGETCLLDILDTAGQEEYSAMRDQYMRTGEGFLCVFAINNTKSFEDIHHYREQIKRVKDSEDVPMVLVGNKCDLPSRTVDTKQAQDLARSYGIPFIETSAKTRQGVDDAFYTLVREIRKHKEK
KRAS G12C, sequence (P62937 whole entry): as the sequence (P62937 whole entry) above

`CCn1c(-c2cccnc2[C@H](C)OC)c2c3cc(ccc31)-c1cc(O)cc(c1)C[C@H](NC(=O)[C@H](C(C)C)N(C)C(=O)[C@@H]1CCN(C(=O)[C@H]3CN3)C1)C(=O)N1CCC[C@H](N1)C(=O)OCC(C)(C)C2` (atropisomer, axis not shown) [Example 186]: the IC50 on KRAS G12D, on KRAS G12S, at KRAS G12V, at KRAS G13C, at KRAS G13D and on KRAS Q61H was 10 to 100 nM in each case. Also, the IC50 (usually the concentration that gives 50% inhibition) on KRAS WT is 10 to 100 nM; at NRAS G12C, less than 10 nM; on NRAS Q61K it was 100 to 1000 nM; at NRAS Q61R, 100 to 1000 nM; on NRAS WT, 10 to 100 nM; on KRAS G12C, less than 10 nM.

With `CCn1c(-c2cccnc2[C@H](C)OC)c2c3cc(ccc31)-c1csc(n1)C[C@H](NC(=O)[C@H](C(C)C)N(C)C(=O)N1CC(N(C)C(=O)[C@H]3CN3)C1)C(=O)N1CCC[C@H](N1)C(=O)OCC(C)(C)C2` [Example 218], the IC50 on KRAS G12D was 1000 to 10000 nM; on KRAS G12S, 100 to 1000 nM; at KRAS G12V, 100 to 1000 nM; at KRAS G13C, 100 to 1000 nM; on KRAS G13D, 100 to 1000 nM; at KRAS Q61H, 10 to 100 nM. In addition, the IC50 was in the range of 100 to 1000 nM on KRAS WT; 10 to 100 nM on NRAS G12C; 10 to 100 nM on NRAS Q61K; 100 to 1000 nM on NRAS Q61R; 100 to 1000 nM at NRAS WT.

On to `CCn1c(-c2cccnc2[C@H](C)OC)c2c3cc(ccc31)-c1cccc(c1)C[C@H](NC(=O)[C@H](C1CCCC1)N1CC[C@]3(CCN(C(=O)[C@@H]4N[C@@H]4C4CC4)C3)C1=O)C(=O)N1CCC[C@H](N1)C(=O)OCC(C)(C)C2` [Example 313], for which the IC50 on KRAS G12D lay in the range of 100 to 1000 nM; on KRAS G12S, 1000 to 10000 nM; at KRAS G12V, 1000 to 10000 nM; on KRAS G13C, 100 to 1000 nM; on KRAS G13D, 1000 to 10000 nM; at KRAS WT, 1000 to 10000 nM. Further, the IC50 at NRAS G12C fell in the range of 100 to 1000 nM; on NRAS Q61K it was 1000 to 10000 nM; on NRAS Q61R, 1000 to 10000 nM; on NRAS WT, 1000 to 10000 nM; at KRAS G12C, 100 to 1000 nM.
